The values below come from ChEMBL document CHEMBL4507269, “Data for DCP probe BAY-386” (2021).

Experiment [1] deals with T1, Adenosine receptor A3 (Homo sapiens) (UniProt P0DMS8).
T1 sequence (whole entry): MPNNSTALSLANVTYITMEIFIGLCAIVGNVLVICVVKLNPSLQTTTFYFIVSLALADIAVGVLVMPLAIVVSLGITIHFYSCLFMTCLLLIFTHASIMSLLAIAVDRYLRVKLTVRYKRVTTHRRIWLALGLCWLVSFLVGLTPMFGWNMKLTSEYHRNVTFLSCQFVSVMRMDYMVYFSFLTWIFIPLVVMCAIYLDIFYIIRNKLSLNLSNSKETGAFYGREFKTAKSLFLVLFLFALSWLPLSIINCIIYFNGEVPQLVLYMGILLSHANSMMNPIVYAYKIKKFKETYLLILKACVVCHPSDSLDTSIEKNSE
The settings on record: Compound concentration 10.0 uM.

Experiment [2] deals with Endothelin-1 receptor (Homo sapiens) (UniProt P25101). The conditions noted are these: Compound concentration 10.0 uM.
For experiment [3], the target named is D(1A) dopamine receptor (Homo sapiens) (UniProt P21728). The conditions noted are these: Compound concentration 10.0 uM.
Experiment [4] addresses Neuropeptide Y receptor type 1 (Homo sapiens) (UniProt P25929). Kind of experiment: Inhibition of Neuropeptide Y Y1 at 10 µM in the Eurofins-Panlabs radioligand binding assay (Eurofins_assay_257010). The settings on record: Compound concentration 10.0 uM.
For experiment [5], the target named is Voltage-dependent N-type calcium channel subunit alpha-1B (Homo sapiens) (UniProt Q00975). The experiment in a line: Inhibition of Calcium Channel N-Type at 10 µM in the Eurofins-Panlabs radioligand binding assay (Eurofins_assay_216000). The conditions noted are these: Rattus norvegicus; Compound concentration 10.0 uM.
The target of experiment [6] is Neuropeptide Y receptor type 2 (Homo sapiens) (UniProt P49146). Kind of experiment: Inhibition of Neuropeptide Y Y2 at 10 µM in the Eurofins-Panlabs radioligand binding assay (Eurofins_assay_257110). The conditions noted are these: Compound concentration 10.0 uM.
The target in experiment [7] is Mu-type opioid receptor (Homo sapiens) (UniProt P35372). The conditions noted are these: Compound concentration 10.0 uM.
Experiment [8] concerns the target B1 bradykinin receptor (Homo sapiens) (UniProt P46663). The experiment in a line: Inhibition of Bradykinin B1 at 10 µM in the Eurofins-Panlabs radioligand binding assay (Eurofins_assay_212510). The conditions noted are these: Compound concentration 10.0 uM.
Experiment [9] has as its target Sigma non-opioid intracellular receptor 1 (Homo sapiens) (UniProt Q99720). The settings on record: Compound concentration 10.0 uM.
In experiment [10] the target is Gamma-aminobutyric acid type B receptor subunit 1 (Homo sapiens) (UniProt Q9UBS5). Kind of experiment: Inhibition of GABAB1A at compound concentration of 10.0 uM in the Eurofins-Panlabs radioligand binding assay (Eurofins_assay_228610). The conditions noted are these: Compound concentration 10.0 uM. The arrangement: ligand concentration 4 nM.
The species entered for experiment [11] is Rattus norvegicus. The experiment in a line: Inhibition of Glutamate, NMDA, Phencyclidine at 10 µM in the Eurofins-Panlabs radioligand binding assay (Eurofins_assay_233000). The settings on record: Compound concentration 10.0 uM. The format is protein-complex assay.
The target in experiment [12] is Histamine H2 receptor (Homo sapiens) (UniProt P25021). The settings on record: Compound concentration 10.0 uM.
The subject of experiment [13] is Platelet. The experiment in a line: Inhibition of platelet aggregation (human plasma, ADP, Collagen). The format is cell-based.
For experiment [14], the species on record is Rattus norvegicus. The experiment in a line: Inhibition of Thyroid Hormone at 10 µM in the Eurofins-Panlabs radioligand binding assay (Eurofins_assay_285900). The class given is protein assay. The conditions noted are these: Compound concentration 10.0 uM.
The species entered for experiment [15] is Rattus norvegicus. Kind of experiment: Testosterone Eurofins-Panlabs radioligand binding assay. The arrangement: ligand concentration 1.5 nM. The settings on record: Compound concentration 10.0 uM.
The target of experiment [16] is Substance-P receptor (Homo sapiens) (UniProt P25103). Kind of experiment: Tachykinin NK1 Eurofins-Panlabs radioligand binding assay. The conditions noted are these: Compound concentration 10.0 uM.
For experiment [17], the target named is GABA-A receptor; anion channel (Rattus norvegicus) (UniProt O09028+P15431+P18506+P18508+P19969+P20236+P23574+P23576+P28471+P28473+P30191+P62813+P63079+P63138+Q91ZM7+Q9ES14). The experiment in a line: Inhibition of GABAA, Muscimol, Central at 10 µM in the Eurofins-Panlabs radioligand binding assay (Eurofins_assay_226500). The conditions noted are these: Compound concentration 10.0 uM. The format is protein-complex assay.

Experiment [18] has as its target 5-hydroxytryptamine receptor 3A (Homo sapiens) (UniProt P46098). The settings on record: Compound concentration 10.0 uM.

Chain of D(1A) dopamine receptor (Homo sapiens) (P21728 whole entry): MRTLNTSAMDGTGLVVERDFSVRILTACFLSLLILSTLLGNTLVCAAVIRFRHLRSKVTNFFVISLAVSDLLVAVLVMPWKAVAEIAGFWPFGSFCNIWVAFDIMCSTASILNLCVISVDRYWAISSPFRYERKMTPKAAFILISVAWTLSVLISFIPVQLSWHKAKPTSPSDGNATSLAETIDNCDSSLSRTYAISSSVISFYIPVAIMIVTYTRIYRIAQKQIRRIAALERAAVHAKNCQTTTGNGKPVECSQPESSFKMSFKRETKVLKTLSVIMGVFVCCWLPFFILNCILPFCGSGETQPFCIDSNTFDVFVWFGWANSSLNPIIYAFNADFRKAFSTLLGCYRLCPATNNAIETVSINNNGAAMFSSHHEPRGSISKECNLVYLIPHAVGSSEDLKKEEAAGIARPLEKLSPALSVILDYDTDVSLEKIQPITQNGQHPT
Chain of Neuropeptide Y receptor type 1 (Homo sapiens) (P25929 whole entry): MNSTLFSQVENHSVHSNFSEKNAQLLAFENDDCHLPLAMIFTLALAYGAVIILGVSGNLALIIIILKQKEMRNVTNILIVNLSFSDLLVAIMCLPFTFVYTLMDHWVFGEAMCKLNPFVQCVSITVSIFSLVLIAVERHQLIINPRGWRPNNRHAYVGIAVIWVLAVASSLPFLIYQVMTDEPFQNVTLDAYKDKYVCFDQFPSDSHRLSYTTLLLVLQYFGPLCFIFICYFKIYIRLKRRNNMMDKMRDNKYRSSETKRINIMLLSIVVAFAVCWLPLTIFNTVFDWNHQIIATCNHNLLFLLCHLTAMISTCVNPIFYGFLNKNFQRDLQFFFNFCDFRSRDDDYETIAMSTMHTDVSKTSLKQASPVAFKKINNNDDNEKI
Chain of Histamine H2 receptor (Homo sapiens) (P25021 whole entry): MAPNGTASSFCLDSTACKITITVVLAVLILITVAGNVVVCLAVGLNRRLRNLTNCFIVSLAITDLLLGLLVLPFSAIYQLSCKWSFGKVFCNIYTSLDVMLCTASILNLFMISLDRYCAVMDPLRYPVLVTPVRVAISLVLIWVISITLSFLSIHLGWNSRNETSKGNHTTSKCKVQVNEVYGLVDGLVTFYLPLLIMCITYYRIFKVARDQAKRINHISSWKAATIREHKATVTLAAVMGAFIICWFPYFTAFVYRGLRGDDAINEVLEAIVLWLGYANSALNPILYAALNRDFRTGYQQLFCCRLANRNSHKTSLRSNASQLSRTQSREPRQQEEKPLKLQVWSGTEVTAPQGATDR
Chain of Neuropeptide Y receptor type 2 (Homo sapiens) (P49146 whole entry): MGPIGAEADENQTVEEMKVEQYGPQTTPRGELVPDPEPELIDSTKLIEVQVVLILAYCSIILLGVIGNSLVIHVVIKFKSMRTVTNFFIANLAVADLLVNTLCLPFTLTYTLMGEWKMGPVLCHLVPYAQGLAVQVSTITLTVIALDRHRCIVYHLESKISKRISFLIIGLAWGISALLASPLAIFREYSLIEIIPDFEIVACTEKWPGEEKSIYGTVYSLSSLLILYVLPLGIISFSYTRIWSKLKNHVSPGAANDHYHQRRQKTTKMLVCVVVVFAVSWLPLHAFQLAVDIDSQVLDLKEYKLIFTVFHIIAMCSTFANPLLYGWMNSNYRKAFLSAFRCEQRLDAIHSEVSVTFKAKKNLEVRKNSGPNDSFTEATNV
Chain of Mu-type opioid receptor (Homo sapiens) (P35372 whole entry): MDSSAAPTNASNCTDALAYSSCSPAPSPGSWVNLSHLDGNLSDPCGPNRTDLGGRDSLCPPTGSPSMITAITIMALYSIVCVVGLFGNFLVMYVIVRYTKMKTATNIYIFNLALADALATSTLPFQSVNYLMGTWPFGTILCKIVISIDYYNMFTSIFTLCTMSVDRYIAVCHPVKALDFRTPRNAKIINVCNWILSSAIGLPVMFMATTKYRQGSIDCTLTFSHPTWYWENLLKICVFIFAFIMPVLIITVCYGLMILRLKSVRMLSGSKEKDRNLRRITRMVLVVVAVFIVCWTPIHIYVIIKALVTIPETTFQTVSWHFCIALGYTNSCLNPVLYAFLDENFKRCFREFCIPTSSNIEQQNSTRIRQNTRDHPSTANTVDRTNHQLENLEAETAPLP
Chain of Endothelin-1 receptor (Homo sapiens) (P25101 whole entry): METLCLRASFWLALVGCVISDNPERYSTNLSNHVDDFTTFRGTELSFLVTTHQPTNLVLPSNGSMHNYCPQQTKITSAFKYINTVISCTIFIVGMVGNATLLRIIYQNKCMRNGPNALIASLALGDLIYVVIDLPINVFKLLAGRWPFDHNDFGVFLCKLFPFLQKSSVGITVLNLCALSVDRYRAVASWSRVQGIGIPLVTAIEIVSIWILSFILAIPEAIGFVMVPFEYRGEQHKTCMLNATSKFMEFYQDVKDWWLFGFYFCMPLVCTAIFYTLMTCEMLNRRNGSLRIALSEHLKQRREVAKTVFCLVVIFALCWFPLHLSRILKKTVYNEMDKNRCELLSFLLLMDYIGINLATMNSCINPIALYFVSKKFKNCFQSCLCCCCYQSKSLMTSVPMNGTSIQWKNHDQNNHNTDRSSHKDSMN
Chain of Substance-P receptor (Homo sapiens) (P25103 whole entry): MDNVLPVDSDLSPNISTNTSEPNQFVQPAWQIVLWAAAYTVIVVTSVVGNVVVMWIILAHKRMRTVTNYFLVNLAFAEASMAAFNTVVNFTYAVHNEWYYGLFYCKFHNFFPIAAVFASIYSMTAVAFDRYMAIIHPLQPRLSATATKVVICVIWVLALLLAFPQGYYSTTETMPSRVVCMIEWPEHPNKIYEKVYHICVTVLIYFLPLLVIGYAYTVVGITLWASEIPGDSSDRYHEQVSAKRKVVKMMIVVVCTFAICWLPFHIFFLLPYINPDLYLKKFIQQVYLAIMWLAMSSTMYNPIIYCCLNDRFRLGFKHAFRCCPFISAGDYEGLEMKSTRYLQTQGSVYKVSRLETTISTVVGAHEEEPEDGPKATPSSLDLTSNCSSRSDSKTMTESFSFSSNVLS
Chain of Gamma-aminobutyric acid type B receptor subunit 1 (Homo sapiens) (Q9UBS5 whole entry): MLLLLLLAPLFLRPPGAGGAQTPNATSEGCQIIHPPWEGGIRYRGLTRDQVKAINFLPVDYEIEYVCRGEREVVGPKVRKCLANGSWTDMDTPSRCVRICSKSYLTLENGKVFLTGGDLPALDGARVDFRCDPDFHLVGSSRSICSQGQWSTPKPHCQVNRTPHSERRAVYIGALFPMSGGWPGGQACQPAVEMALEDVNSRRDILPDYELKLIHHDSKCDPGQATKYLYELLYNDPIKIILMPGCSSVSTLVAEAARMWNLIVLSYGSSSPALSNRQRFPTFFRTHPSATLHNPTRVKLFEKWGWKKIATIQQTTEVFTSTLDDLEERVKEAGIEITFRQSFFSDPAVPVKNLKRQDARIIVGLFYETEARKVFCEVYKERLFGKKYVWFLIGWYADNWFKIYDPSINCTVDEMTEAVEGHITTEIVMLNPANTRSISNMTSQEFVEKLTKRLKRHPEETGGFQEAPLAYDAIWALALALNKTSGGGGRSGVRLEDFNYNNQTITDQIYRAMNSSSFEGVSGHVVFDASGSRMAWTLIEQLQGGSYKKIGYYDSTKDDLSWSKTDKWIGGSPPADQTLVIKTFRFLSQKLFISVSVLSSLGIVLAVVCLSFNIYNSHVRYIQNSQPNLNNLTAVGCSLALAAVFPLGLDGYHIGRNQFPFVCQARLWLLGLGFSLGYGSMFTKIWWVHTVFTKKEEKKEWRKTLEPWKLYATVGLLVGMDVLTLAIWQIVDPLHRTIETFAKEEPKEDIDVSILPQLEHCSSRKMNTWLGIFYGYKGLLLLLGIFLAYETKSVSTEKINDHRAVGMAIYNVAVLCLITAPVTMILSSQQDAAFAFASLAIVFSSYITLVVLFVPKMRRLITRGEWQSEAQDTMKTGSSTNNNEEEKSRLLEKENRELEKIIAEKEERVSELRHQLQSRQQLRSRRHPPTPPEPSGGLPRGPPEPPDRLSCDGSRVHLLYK
Chain of B1 bradykinin receptor (Homo sapiens) (P46663 whole entry): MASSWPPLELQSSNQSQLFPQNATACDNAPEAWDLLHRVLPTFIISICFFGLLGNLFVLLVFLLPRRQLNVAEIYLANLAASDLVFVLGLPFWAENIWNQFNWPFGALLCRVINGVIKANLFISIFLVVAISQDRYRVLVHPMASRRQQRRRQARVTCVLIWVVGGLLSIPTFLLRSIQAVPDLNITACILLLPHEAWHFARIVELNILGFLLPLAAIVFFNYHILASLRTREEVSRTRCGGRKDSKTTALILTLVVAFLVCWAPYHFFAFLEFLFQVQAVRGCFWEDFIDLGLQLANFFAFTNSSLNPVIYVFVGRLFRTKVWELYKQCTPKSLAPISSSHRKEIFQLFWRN
Chain of Sigma non-opioid intracellular receptor 1 (Homo sapiens) (Q99720 whole entry): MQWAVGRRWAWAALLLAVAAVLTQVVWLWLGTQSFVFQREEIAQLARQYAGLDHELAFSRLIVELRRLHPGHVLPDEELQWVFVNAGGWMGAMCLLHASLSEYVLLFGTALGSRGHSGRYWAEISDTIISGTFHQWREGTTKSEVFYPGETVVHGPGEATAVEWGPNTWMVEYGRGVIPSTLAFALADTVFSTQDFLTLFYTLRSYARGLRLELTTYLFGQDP
Chain of 5-hydroxytryptamine receptor 3A (Homo sapiens) (P46098 whole entry): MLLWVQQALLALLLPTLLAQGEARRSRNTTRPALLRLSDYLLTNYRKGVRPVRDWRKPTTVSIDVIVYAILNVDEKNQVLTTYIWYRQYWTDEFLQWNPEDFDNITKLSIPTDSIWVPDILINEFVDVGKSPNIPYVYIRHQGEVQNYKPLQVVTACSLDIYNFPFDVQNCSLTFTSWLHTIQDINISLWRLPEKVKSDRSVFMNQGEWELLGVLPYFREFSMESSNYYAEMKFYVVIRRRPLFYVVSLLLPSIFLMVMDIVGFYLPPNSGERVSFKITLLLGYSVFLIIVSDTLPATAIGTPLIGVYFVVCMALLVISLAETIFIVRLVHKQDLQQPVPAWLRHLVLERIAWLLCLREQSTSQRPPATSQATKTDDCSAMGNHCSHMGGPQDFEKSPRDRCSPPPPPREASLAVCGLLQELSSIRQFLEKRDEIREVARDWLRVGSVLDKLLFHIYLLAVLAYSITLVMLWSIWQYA

In general, inhibition refers to the change of the read-out against control, counted positive when it falls. As usually defined, the IC50 is the concentration that inhibits the measured activity by half. A lower IC50 goes with greater potency. As for `O=C(N1CCS(=O)(=O)CC1)N1C[C@H](c2ccc(OC(F)(F)F)cc2)C[C@H](c2nc(C3CC3)no2)C1` [BAY-386], the inhibition is 12% in [1]; 2% in [2]; 4% in [3]; 1% in experiment [4]; 3% in [5]; 2% in experiment [6]. The inhibition was 6% in [7]; 6% in experiment [8]; 40.3% in [9]; 10% in [10]; 0% in experiment [11]; -3% in experiment [12]. The inhibition in experiment [14] is 11%; in experiment [15] it was 11%; in [16] it was -2%; in [17], 10%. The concentration for half-maximal inhibition (IC50) in experiment [13] is listed as > 100 µM (not active).

Take `Cc1noc([C@H]2C[C@@H](c3ccc(C(F)(F)F)cc3)CN(C(=O)N3CCS(=O)(=O)C3)C2)n1` [BAY-448]: in experiment [18], the inhibition is 12.8%.
